# Experimental data as given in US12419853B2, “Nanoparticle pharmaceutical delivery system” (ADEIRA PHARMA, LLC, priority 2019, dated 2025).
# Key:
# [1] = From the text: In a fifth alternative example, formulation of a nanoparticle emulsion was attempted as described in example 1, except that no triacetin was used, just safflower oil as the lipid component. […] The maximum solubility was approximately 1000× less than in triacetin.
# [2] = test system: OVCAR3 human ovarian carcinoma xenograft; experiment: OVCAR3 xenograft efficacy; type: in vivo; details: CB.17 SCID mice, 4 mg/kg weekly, four doses
# Protocol: In this three-arm study, a vehicle control was included, which consisted of the nanoparticle emulsion with no cisplatin. A positive control arm included a conventional formulation of free cisplatin dosed at 4 mg/kg. The test arm included the nanoparticle emulsion at a dose of 4 mg/kg.
# 60 female CB.17 SCID mice, aged 8 to 12 weeks, were implanted with 1 mm^3 OVCAR3 tumor fragments in the flank. When the tumors had grown to approximately 100-150 mm^3, pairs were matched by tumor size and treatment began. Dosing was carried out weekly on all three arms, for a total of four doses. Body weight and tumor size for each of the mice was taken every other day. No excess toxicity was noted, as evidenced by body weight and observed behavior of the mice. […] The negative control (labeled ‘vehicle’ in FIG. 6) served as a reference for tumor growth in the absence of cisplatin.
smiles,measurement,setting,value
CC(=O)O[C@H]1C(=O)[C@@]2(C)[C@H]([C@H](OC(=O)c3ccccc3)[C@]3(O)C[C@H](OC(=O)[C@H](O)[C@@H](NC(=O)c4ccccc4)c4ccccc4)C(C)=C1C3(C)C)[C@]1(OC(C)=O)CO[C@@H]1C[C@@H]2O [paclitaxel],"maximum solubility in safflower oil, fold less than in triacetin",[1],approximately 1000 ×
"N.N.[Cl][Pt][Cl] [free cisplatin, cisplatin]",effect on tumor growth,[2],significant reduction in tumor growth
